pEC50: −log10 of the molar value. Where two headings read alike, the source gives them in different places.
Key:
Plasmodium falciparum = assay: Antimicrobial activity against Plasmodium falciparum; assay type: cell-based; details: Table 1, Plasmodium falciparum
[1] = Efficacy PK blood samples, acute model; assay type: in vivo, mouse; details: 50 mg/kg po b.i.d.
Method: In a model of the acute phase of HAT, five mice infected with T. b. rhodesiense STIB900 were given the test compound at 50 mg/kg po b.i.d.×4 days, beginning 2 days post-infection. Efficacy PK blood samples were collected from three of the five mice prior to dose 7, and at 1 h and 6 h post-dose. Average plasma levels of the test compound were 9.1±7.6 μM (pre-dose), 18.6±7.2 μM (1 h), and 15.0±4.2 μM (6 h). Compound 1 attained 5/5 cures as determined by the absence of detectable parasitemia in any of the treated mice 60 days post-infection (FIG. 1).

[2] = Rat pharmacokinetics, oral administration; assay type: in vivo; design: AUC(0-inf): unit not given here; details: 20 mg/kg; for AUC(0-inf) / Cmax / Tmax: rat, in vivo, po
Method: (§1) The pharmacokinetics of compound 1 was tested in rats after intravenous and oral administration. Two rats were administered 5 mg/kg compound 1 intravenously in a vehicle consisting of 7% Tween 80, 3% EtOH, 5% DMSO in saline. Two rats were administered 20 mg/kg compound 1 orally in a vehicle consisting of 5% DMSO, 0.5% Tween 80, 1% methylcellulose in water. The results are shown in Table 4 and FIGS. 3A-3B and 4A-4B.

[3] = Rat pharmacokinetics, intravenous administration; assay type: in vivo; design: AUC(0-inf): unit not given here; details: 5 mg/kg; for AUC(0-inf) / Cmax / half-life / clearance / Vd: rat, iv; for Cmax / half-life / clearance / Vd: plasma
Method: as §1

[4] = Metabolic stability in mouse liver microsomes; assay type: in vitro ADME
Method: Metabolic stability was evaluated using liver microsomes derived from mouse and human sources. Microsomal incubations were carried out according to a protocol described previously (Wang et al., Antimicrob. Agents Chemother. 54:2507 (2010)) with modifications. Briefly, substrate stock solutions were prepared in DMSO and DMSO content was kept at 0.5% (v/v) in final incubations. Incubation mixtures ([…]), liver microsomes (0.5 mg/mL) from mouse (pool of 1000, CD-1 male mouse) or human (pool of 50, mixed gender) (XenoTech LLC, Lenexa, Kans.) in a phosphate buffer (100 mM, pH 7.4) containing 3.3 mM MgCl2. After a 5-minute pre-equilibration period at 37° C., reactions (in triplicate) were initiated by adding the NADPH cofactor (1 mM). For NADPH-independent reactions, the cofactor was replaced with water. Aliquots (10 μl) of the reaction mixtures were removed at 0, 15, 30, and 60 minutes and individually mixed with 200 μL of ice-cold acetonitrile containing internal standard. The mixtures were vortex-mixed, and precipitated protein was removed by centrifugation at 2,250×g for 15 min. The supernatant fractions were dried using a 96-well microplate evaporator (Apricot Designs Inc., Covina, Calif.) under N2 at 50° C. and reconstituted with 100 μL 50% methanol containing 0.1% trifluoroacetic acid before UPLC-MS/MS analysis. In vitro half-life (t1/2) was obtained by analyzing the substrate concentration vs. incubation time curve using the one-phase exponential decay model (GraphPad Prism® 5.0, San Diego, Calif.).

[5] = Efficacy PK blood samples, chronic model; assay type: in vivo, mouse; details: 50 mg/kg po b.i.d.
Method: In a model of the chronic phase of HAT, compound 1 was administered to five mice infected with T. b. brucei TREU667 at 50 mg/kg/po b.i.d.×10 days, beginning 21 days post-infection. […] Efficacy PK blood samples were collected from three of the five mice prior to dose 15, and at 1 h and 6 h post-dose. Average plasma levels of the test compound were 15.8±8.7 μM (pre-dose), […] (1 h), and 26.7±7.1 μM (6 h). Compound 1 attained 5/5 cures as determined by the absence of detectable parasitemia in any of the treated mice through 180 days post-infection (FIG. 2). No mice receiving vehicle alone had spontaneous cures.

O=C(Nc1ccc2sc(-c3ccc(F)c(F)c3)nc2c1)N1CC[C@H](F)C1 [Compound 1, (S)-2-(3,4-Difluorophenyl)-5-(3-fluoro-N-pyrrolidylamido)benzothiazole]
pEC50 (Plasmodium falciparum): 4.78 | Average plasma levels ([1]; 1 h post dose 7): 18.6 ± 7.2 µM | Average plasma levels ([1]; 6 h post dose 7): 15.0 ± 4.2 µM | Average plasma levels ([1]; prior to dose 7 (pre-dose)): 9.1 ± 7.6 µM | Apparent BA ([2]; Mean ± SEM (n = 2)): 116.85% | Apparent BA ([2]; Rat 3): 110.29% | Apparent BA ([2]; Rat 4): 123.40% | AUC(0-inf) ([2]; Mean ± SEM (n = 2)): 6270 | Cmax ([2]; Mean ± SEM (n = 2)): 8.92 µM | Tmax ([2]; Mean ± SEM (n = 2)): 7 h | AUC(0-inf) ([2]; Rat 3): 5770 | Cmax ([2]; Rat 3): 7.31 µM | Tmax ([2]; Rat 3): 8 h | AUC(0-inf) ([2]; Rat 4): 6770 | Cmax ([2]; Rat 4): 10.5 µM | Tmax ([2]; Rat 4): 6 h | Tmax ([3]; Mean ± SEM (n = 2)): 5 min | Tmax ([3]; Rat 2): 5 min | Tmax ([3]; in vivo, Rat 1, read-out: Tmax (converted)): 5 min | AUC(0-inf) ([3]; in vivo, Mean ± SEM (n = 2)): 1440 | AUC(0-inf) ([3]; in vivo, Rat 1): 1380 | AUC(0-inf) ([3]; in vivo, Rat 2): 1500 | Cmax ([3]; Mean ± SEM (n = 2)): 11.7 µM | half-life ([3]; Mean ± SEM (n = 2), read-out: Apparent T1/2 (min) for steady state): 96.7 min | half-life ([3]; Mean ± SEM (n = 2), read-out: Apparent T1/2 (min) for terminal phase): 96.7 min | clearance ([3]; Mean ± SEM (n = 2), read-out: Plasma CL): 9.35 mL/min/kg | Vd ([3]; Mean ± SEM (n = 2), read-out: Plasma Vz): 0.76 L/kg | Vd ([3]; Mean ± SEM, read-out: Plasma Vss): 1.31 L/kg | Cmax ([3]; Rat 1): 12.1 µM | half-life ([3]; Rat 1, read-out: Apparent T1/2 (min) for steady state): 88.5 min | half-life ([3]; Rat 1, read-out: Apparent T1/2 (min) for terminal phase): 88.5 min | clearance ([3]; Rat 1, read-out: Plasma CL): 10.3 mL/min/kg | Vd ([3]; Rat 1, read-out: Plasma Vss): 1.32 L/kg | Vd ([3]; Rat 1, read-out: Plasma Vz): 0.882 L/kg | Cmax ([3]; Rat 2): 11.3 µM | half-life ([3]; Rat 2, read-out: Apparent T1/2 (min) for steady state): 105 min | half-life ([3]; Rat 2, read-out: Apparent T1/2 (min) for terminal phase): 105 min | clearance ([3]; Rat 2, read-out: Plasma CL): 8.38 mL/min/kg | Vd ([3]; Rat 2, read-out: Plasma Vss): 1.3 L/kg | Vd ([3]; Rat 2, read-out: Plasma Vz): 0.639 L/kg | Microsome t1/2 (min) Mouse ([4]; Table 5): >60 min | Mouse microsomes, percentage of compound remaining ([4]; Table 12, after 60 min (where t1/2 > 60 min)): 73% | half-life at 3 μM ([4]; male, CD-1, liver microsomes, pH 7.4, mouse microsomes, read-out: microsomal half-life): > 1 h | half-life at 1.5 μM ([4]; male, CD-1, mouse, liver microsomes, pH 7.4, Table 12, 37° C., NADPH (1 mM), microsomes 0.5 mg/mL, test compounds 1.5 μM, read-out: Mouse microsomes t1/2): > 1 h | Average plasma levels ([5]; 1 h post dose 15): 23.1 ± 603 µM | Average plasma levels ([5]; 6 h post dose 15): 26.7 ± 7.1 µM | Average plasma levels ([5]; prior to dose 15 (pre-dose)): 15.8 ± 8.7 µM

Reference: US10399966B2, “Compounds for treatment of trypanosomes and neurological pathogens and uses thereof” (The University of North Carolina at Chapel Hill, priority 2016, dated 2019)
